Results published in patent US20220378744A1, “COMPOUNDS FOR TREATING PROLIFERATOR-ACTIVATED RECEPTORS (PPAR) MEDIATED DISEASES OR CONDITIONS” (MEDIPURE PHARMACEUTICALS INC., priority 2021, published 2022).

Legend:
[1] = tested on: TNFα/IL-17A-stimulated HaCaT cells; assay: Anti-inflammatory effect of combined test compounds (Abn-CBD/CBD and PPAR agonists) in TNFα/IL-17A-stimulated HaCaT cells; format: cell-based, human
Experimental: HaCaT cells were maintained as described above in DMEM high glucose (4.5 g/L) medium supplemented with 10% FBS and 1% (v/v) penicillin/streptomycin solution (Invitrogen, Thermo Fisher) and kept in an incubator at 37° C. with 5% CO2. For experiments the cells were seeded at 5×10^4 cells/well in 0.5 mL of medium to a 24-well culture plate (Nunc, Thermo Fisher) and incubated overnight. The old medium in the culture plates was discarded and the corresponding stimulant, TNFα/IL-17A (R&D Systems) at 2 ng/mL each, with or without test chemicals in 0.5 mL of fresh medium was added to each cell well in the plate. There were duplicate wells for each treatment. The plate was incubated for another 24 h and the supernatant was collected for cytokine analysis, namely IL-6 and IL-8, using ELISA kits (Thermo Fisher).

[2] = tested on: IMQ-induced psoriasis in BALB/c mice; assay: IMQ-induced psoriasis model in BALB/c mice, topical creams, PASI score; format: in vivo; details: for tolerability in mice / visual damage on the skin: topical, seven-day consecutive treatment; for tolerability in mice: even at 10% creams; for visual damage on the skin: up to 10% creams
Experimental: The animal experiment is conducted in accordance with the Guidelines for the Institutional Animal Care and Use Committee. Both male and female BALB/c mice from Rodenta Bioserve, India, at 7-8 weeks of age and 20-25 gram of body weight are housed in a laboratory environment with constant temperature (24.0±1.0° C.) and relative humidity (45.0-55.0%) on a 12 h light/dark cycles. These animals are provided free access to unlimited amounts of food and water during the entire experiment. The animals are divided into 12 groups of 8 mice each and shaved on the back on day 0 for an area of 2×2 cm . Human-like psoriasis in mice is induced by topical application of 5% Imiquimod (IMQ) procured from AK Scientific, USA, and formulated in the base cream at desired percentages in-house, in shaved area and right ear (0.5×0.5 cm). […] Vehicle, clobetasol propionate (CP, Sigma. 0.05% w/w; positive control), test creams, and CBD (Ilesol Pharmaceuticals), respectively, is applied topically on both the shaved back (80 mg cream) and the right ear (20 mg cream) of mice, once daily from day 10 to day 16. The study ends at day 17. At stated time points the severity of psoriasis is evaluated using the PASI score (Psoriasis Area Severity Index: sum of erythema, scaling and thickening, scored independently from 0 to 4 for each mouse; max PASI score=12). Tissue and blood samples are collected for histopathology, biochemistry and immunoassay from each animal at various points.

human PPARα (NR1C1) = target: T1, human PPARα (NR1C1) (Homo sapiens, UniProt Q07869); assay: Cell-based human PPARα transactivation (nuclear receptor reporter) assay; details: luciferase reporter cells, 24 h treatment, FIG. 1
T1 sequence (Q07869 1-468): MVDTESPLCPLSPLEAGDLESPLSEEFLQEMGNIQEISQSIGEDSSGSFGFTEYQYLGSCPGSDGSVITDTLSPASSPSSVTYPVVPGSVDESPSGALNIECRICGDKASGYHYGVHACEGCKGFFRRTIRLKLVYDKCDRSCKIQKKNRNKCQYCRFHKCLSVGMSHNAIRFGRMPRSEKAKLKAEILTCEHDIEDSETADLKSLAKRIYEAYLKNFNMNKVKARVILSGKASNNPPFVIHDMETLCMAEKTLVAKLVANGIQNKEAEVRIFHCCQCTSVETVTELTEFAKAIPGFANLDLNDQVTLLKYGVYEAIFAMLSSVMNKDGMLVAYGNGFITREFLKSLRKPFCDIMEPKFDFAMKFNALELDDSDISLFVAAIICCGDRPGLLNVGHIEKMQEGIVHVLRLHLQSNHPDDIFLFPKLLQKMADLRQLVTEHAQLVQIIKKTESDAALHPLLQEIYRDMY
Experimental: (§1) The assay was performed using cell-based human PPAR nuclear receptor reporter assay kits (NR1C1 for PPARα; NR1C2 for PPARδ/β, and NR1C3 for PPARγ, Indigo Biosciences) by following the manufacturer's instruction. In brief, PPAR reporter cells were added to CRM medium (Indigo Biosciences), seeded into wells of a 96-well culture plate and incubated for 5 hours in a cell culture incubator at 37° C. with 5% CO2. The medium was then removed, and the cells were treated with test compounds at different concentrations in CSM medium (Indigo Biosciences) for 24 h inside the incubator. […] DMSO (Sigma) at 0.1% (v/v) was used as negative baseline control (C). Each treatment was tested in duplicate wells. At the end point of the experiments, the treatment medium was discarded and Luciferase Detection Reagent (Indigo Biosciences) was added. Following a 10-minute rest period, the intensity of light emission (in units of “Relative Light Units; RLU”) from each assay well was quantified using a plate-reading luminometer (Synergy H1 plate reader, BioTek). In addition, live cell multiplex assay (Indigo Biosciences) was combined with the activation assays to detect potential cytotoxic effect, if any, of the test chemicals to normalize the signals as per manufacturer's instruction.

[3] = tested on: IMQ-stimulated HaCaT cells; assay: Anti-inflammatory effect, IMQ-stimulated HaCaT cell model (IL-6, IL-8 ELISA); format: cell-based, human; details: IMQ 50 μM, 24 h, vs control
Experimental: (§2) Three in vitro models based on HaCaT cell culture were tested. HaCaT cells were maintained as described above in DMEM high glucose (4.5g/L) medium supplemented with 10% FBS and 1% (v/v) penicillin/streptomycin solution (Invitrogen, Thermo Fisher) and kept in an incubator at 37° C. with 5% CO2. For experiments, the cells were seeded at 5×10^4 cells/well in 1 mL of medium to a 24-well culture plate (Nunc, Thermo Fisher) and incubated overnight.
(§3) (1) For the imiquimod (IMQ)-stimulated HaCaT model, IMQ (Alfa Aesar) at 50 μM final concentration was used in the experiments; (2) for TNFα/IL-17A-stimulated-HaCaT model, 2 ng/mL of each cytokine (R&D Systems) was used; and (3) for the lipopolysaccharide (LPS, Sigma) simulated HaCaT cell model, 20 μg/mL LPS was used. For drug chemical treatment the old medium in the culture plates described above was discarded and the corresponding stimulant (IMQ, TNFα/IL-17A, or LPS) with or without test chemicals in 0.5 mL fresh medium was added to each cell well. There were duplicate wells for each treatment. The plate was incubated for another 24 h and the supernatant was collected for cytokine analysis, namely IL-6 and IL-8, using the corresponding ELISA kits (Thermo Fisher).

[4] = tested on: LPS-stimulated HaCaT cells; assay: Anti-inflammatory effect, LPS-stimulated HaCaT cell model (IL-6, IL-8 ELISA); format: cell-based, human; details: LPS 20 μg/mL, 24 h; for reduction of IL-8 production compared with rosiglitazone and fenofibrate: 25 μM; for production of IL-6: compound at 25 uM
Experimental: as §2
as §3, with “Fisher). The experiments were repeated independently to confirm the observation.” for “Fisher).”

human PPARγ (NR1C3) = target: T2, human PPARγ (NR1C3) (Homo sapiens, UniProt P37231); assay: Cell-based human PPARγ transactivation (nuclear receptor reporter) assay; details: FIG. 3
T2 sequence (P37231 1-505): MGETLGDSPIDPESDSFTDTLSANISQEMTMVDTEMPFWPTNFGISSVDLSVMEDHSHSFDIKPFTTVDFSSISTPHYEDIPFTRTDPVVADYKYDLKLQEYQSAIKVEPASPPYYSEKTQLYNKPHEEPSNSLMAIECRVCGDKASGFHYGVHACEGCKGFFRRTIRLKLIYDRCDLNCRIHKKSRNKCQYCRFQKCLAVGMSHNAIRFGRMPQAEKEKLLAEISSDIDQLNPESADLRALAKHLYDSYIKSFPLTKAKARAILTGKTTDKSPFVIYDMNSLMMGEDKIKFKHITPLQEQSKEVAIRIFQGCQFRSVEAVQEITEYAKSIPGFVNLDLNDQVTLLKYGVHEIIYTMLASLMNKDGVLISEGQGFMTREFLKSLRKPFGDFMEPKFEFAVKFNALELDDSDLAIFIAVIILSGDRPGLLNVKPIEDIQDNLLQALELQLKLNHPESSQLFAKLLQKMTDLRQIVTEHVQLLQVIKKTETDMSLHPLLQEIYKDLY
Experimental: as §1

human PPARδ/β (NR1C2) = target: T3, human PPARδ/β (NR1C2) (Homo sapiens, UniProt Q03181); assay: Cell-based human PPARδ/β transactivation (nuclear receptor reporter) assay; details: at tested concentrations
T3 sequence (Q03181 1-441): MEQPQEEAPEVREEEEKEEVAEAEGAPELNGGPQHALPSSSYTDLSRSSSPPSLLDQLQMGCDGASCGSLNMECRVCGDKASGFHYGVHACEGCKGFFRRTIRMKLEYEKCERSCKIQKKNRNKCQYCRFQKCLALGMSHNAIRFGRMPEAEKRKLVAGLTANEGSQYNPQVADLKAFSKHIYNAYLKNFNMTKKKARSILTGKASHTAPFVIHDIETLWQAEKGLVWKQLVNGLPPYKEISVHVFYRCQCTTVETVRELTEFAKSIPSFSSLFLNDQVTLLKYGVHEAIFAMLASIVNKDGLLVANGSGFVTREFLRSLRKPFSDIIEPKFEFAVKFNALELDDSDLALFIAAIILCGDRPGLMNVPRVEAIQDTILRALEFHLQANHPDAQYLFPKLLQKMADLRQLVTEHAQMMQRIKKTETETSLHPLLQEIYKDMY
Experimental: as §1

[5] = initial studies, range 1 to 30 μM, HaCaT model
[6] = creams at 1% and 5%, once daily day 10 to day 16, FIG. 11

SMILES	tolerability in mice [2]	visual damage on the skin [2]	PPARα transactivation: concentration at which (or starting at which) active (human PPARα (NR1C1)) [µM]	production of IL-6 ([3]; compound at 2.5 μM)	production of IL-6 ([3]; compound at 25 μM)	other results
C=C(C)[C@@H]1CCC(C)=C[C@H]1c1c(O)cc(CCCCC)cc1O [CBD, cannabidiol, reference compound]	well tolerated	No visual damage	–	–	–	HaCaT growth ([1]; at higher concentrations, e.g. 30 μM): inhibit HaCaT growth; production of IL-6 [1, 5]: reduced; production of IL-8 [1, 5]: reduced
CCCc1cc(C(=O)c2ccc(-c3ccccc3)cc2)ccc1OCCCOc1ccc2c(cnn2CC(=O)O)c1 [MP-151, 2-(5-(3-(4-([1,1′-biphenyl]-4-carbonyl)-2-propylphenoxy)propoxy)-1H-indazol-1-yl)acetic acid]	well tolerated	No visual damage	5	significantly inhibited	significantly inhibited	reduction of IL-8 production compared with rosiglitazone and fenofibrate [4]: more active; production of IL-6 [4]: reduced
CCCc1cc(C(=O)c2ccc(F)cc2)ccc1OCCCOc1ccc2c(cnn2CC(=O)OC)c1 [MP-152, methyl 2-(5-(3-(4-(4-fluorobenzoyl)-2-propylphenoxy)nropoxy)-1H-indazol-1-yl)acetate]	well tolerated	No visual damage	1	significantly inhibited	significantly inhibited	PPARγ transactivation: concentration at which (or starting at which) active (human PPARγ (NR1C3)): 1,000 nM; reduction of IL-8 production compared with rosiglitazone and fenofibrate [4]: more active; production of IL-6 [4]: reduced; reducing the PASI score compared with CP [2, 6]: more effective than CP; reducing the PASI score, rank among the treatment groups [2, 6]: most active
CCCc1cc(C(=O)c2ccc(-c3ccccc3)cc2)ccc1OCCCOc1ccc2c(cnn2CC(=O)OC)c1 [MP-153, methyl 2-(5-(3-(4-([1,1′-biphenyl]-4-carbonyl)-2-propylphenoxy)propoxy)-1H-indazol-1-yl)acetate]	–	–	5	significantly inhibited	significantly inhibited	–
CCCc1cc(C(=O)c2ccc(F)cc2)ccc1OCCCOc1ccc2c(cnn2CC(=O)O)c1 [MP-154, 2-(5-(3-(4-(4-fluorobenzoyl)-2-propylphenoxy)propoxy)-1H-indazol-1-yl)acetic acid]	–	–	1	no anti-inflammatory effect	significantly inhibited	PPARγ transactivation: concentration at which (or starting at which) active (human PPARγ (NR1C3)): 1,000 nM
CSc1ccc(C(=O)/C=C/c2cc(C)c(OC(C)(C)C(=O)O)c(C)c2)cc1 [elafibranor]	–	–	–	–	–	PPARδ/β transactivation activity (human PPARδ/β (NR1C2)): showed activities
CCO[C@@H](Cc1ccc(OCCn2c(C)ccc2-c2ccc(SC)cc2)cc1)C(=O)O [saroglitazar]	–	–	–	–	–	PPARδ/β transactivation activity (human PPARδ/β (NR1C2)): showed activities
